From patent US11479587B2, “Cationic intrinsically disordered antimicrobial peptides” (priority 2016, dated 2022)
Values after ≈ are worked out from the molar mass of the structure shown. Values joined by “and” are separate entries in the source; they are usually repeats but may differ in a detail not shown here. Equal entries are not always repeated. Where two headings read alike, the source gives them in different places. Non-standard residues stand in square brackets, D forms with d. Residues, ends and D or L forms follow the SMILES beside them. No end group written: not given here. *: point of attachment. Palmitoyl = CCCCCCCCCCCCCCCC(=O)*; Dap = NC[C@H](N)C(=O)O

Columns and labels:
P. aeruginosa ATCC 10145 = experiment: CFU-assay, P. aeruginosa-cidal activity; format: cell-based, Pseudomonas aeruginosa; conditions: pH 5.5, 0.25% glucose
S. aureus ATCC 6538 = experiment: CFU-assay, S. aureus-cidal activity; format: cell-based, Staphylococcus aureus; conditions: pH 5.5, 0.25% glucose
How it was run: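 Bactericidal CFU-assay in nutrient-deficient 10 mM sodium phosphate buffer pH 5.5 with 0.25% glucose, counting surviving colonies across twofold peptide dilutions from 300 μg/ml to 19 ng/ml. Output is minimal bactericidal concentration (e.g. MBC90, MBC100); some peptides also tested at pH 7.0.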

[1] = tested on: methicillin-resistant S. aureus strain (ATCC 43300); format: cell-based, Staphylococcus aureus
Method: Furthermore, sensitivity of a methicillin-resistant S. aureus strain (ATCC 43300) was investigated for palmitoylated CIDAMPs in a microtiter plate screening model, with incubation in Mueller-Hinton medium at 37° C. for 18 h using resazurin as a marker for cell viability.
A sample of each culture was then diluted 40-fold in fresh broth and incubated at 37° C. for 1.5-3 h. […] All the plates were covered and incubated at 37° C. for 18 h.
(§1) Inhibition of bacterial growth was determined using resazurin as a marker for cell viability. Resazurin was added to each well, at 0.001% final concentration, and plates incubated at 37° C. for 2 h. Fluorescence intensity was measured, using F (top read), ex 560/10 nm, em 590/10 nm, using a Tecan M1000 Pro monochromator plate reader.

[2] = Cytotoxicity (resazurin) assay
Method: For the cytotoxicity (resazurin) assay, HEK293 cells were counted manually in a Neubauer haemocytometer and plated at a density of 4000 cells/well into each well of the 384-well plates containing the 25×(2 μl) concentrated compounds. The medium used was Dulbecco's modified eagle medium (DMEM) supplemented with 10% foetal bovine serum (FBS). Cells were incubated together with the compounds for 20 h at 37° C., 5% CO2. To measure cytotoxicity, 5 μl (equals 100 μM final) resazurin was added to each well after incubation, and incubated for further 3 h at 37° C. with 5% CO2.
After final incubation fluorescence intensity was measured as F ex 560/10 nm, em 590/10 nm (F560/590) using a Tecan M1000 Pro monochromator plate reader. […] The concentration dependent percentage cytotoxicity was fitted to a dose response function (using Pipeline Pilot) and CC50 values determined.

Hemolysis assay = format: cell-based
Method: (§2) For the hemolysis assays EDTA-blood was centrifuged at 800×g for 10 min, and the plasma and buffy coat were removed. The erythrocytes were washed three times and resuspended in 5% PBS, pH 7.4. The cells were then incubated with end-over-end rotation for 1 h at 37° C. in the presence of different concentrations of peptides (0, 3, 10, 30, 60 μm). 0.1% Triton X-100 (Sigma-Aldrich) served as positive control. The samples were then centrifuged at 800×g for 10 min.
(§3) The absorbance of hemoglobin release was measured at 540 nm and is expressed as % of Triton X-100-induced hemolysis. These values of triplicates were plotted with Graph Pad Prism 4 as a dose response curve and the CC50 was determined.

A. baumannii ATCC 19606 = format: cell-based, Acinetobacter baumannii
Method: as §1

erythrocytes = experiment: Hemolysis assay; format: cell-based
Method: as §2, §3

C. albicans ATCC 928 = conditions: for MIC: ATCC 928, 18 h, pH 7.4
E. coli ATCC 25922 = format: cell-based, Escherichia coli; conditions: Mueller-Hinton medium
Method: as §1

[3] = tested on: Burkholderia cepacia ATCC 25416; experiment: CFU-assay, Burkholderia cepacia-cidal activity; format: cell-based
[4] = tested on: Klebsiella pneumoniae ATCC 13883; experiment: CFU-assay, Klebsiella pneumoniae-cidal activity; format: cell-based
[5] = erythrocytes, read-out: Hemolysis (CC50)

Compound | MIC, S. aureus ATCC 43300 ([1]; ATCC 43300, 18 h) [µg/mL] | CC50 [2] | MIC, C. neoformans ATCC 208821 (C. neoformans) [µg/mL] | HC50 (Hemolysis assay) [µg/mL] | hemolytic activity (in words) (erythrocytes) | also measured
CCCCCCCCCCCCCCCC(=O)NCC(=O)N[C@@H](CCN)C(=O)NCC(=O)N[C@@H](CCN)C(=O)O [Pal-GDab4, Pal-GDabGDab] (HELM PEPTIDE1{[CCCCCCCCCCCCCCCC(=O)[*:2]].G.[Dab].G.[Dab]}$$$$V2.0) | ≥32 | 32 µg/mL (≈ 56.1 µM) | ≥16 |  |  | MBC90 (P. aeruginosa ATCC 10145): 2.35 µg/mL (≈ 4.12 µM); MBC100 (P. aeruginosa ATCC 10145): 9.38 µg/mL (≈ 16.4 µM); MBC90 (S. aureus ATCC 6538): 4.7 µg/mL (≈ 8.23 µM); MBC100 (S. aureus ATCC 6538): 18.75 µg/mL (≈ 32.9 µM); CC50 (Hemolysis assay): > 100 µg/mL; MIC, A. baumannii ATCC 19606 (A. baumannii ATCC 19606; ATCC 19606, 2 h): ≥32 µg/mL
CCCCCCCCCCCCCCCC(=O)NCC(=O)N[C@@H](CN)C(=O)NCC(=O)N[C@@H](CN)C(=O)O [Pal-GDap4, Pal-GDapGDap] (Palmitoyl-G[Dap]G[Dap]-OH) | ≥8 | > 32 µg/mL | ≥1 | > 300 | low hemolytic activity | MIC, C. albicans ATCC 90028 (C. albicans ATCC 928; ATCC 928): ≥8 µg/mL; MIC (C. albicans ATCC 928): 1 to 32 µg/mL
CCCCCCCCCCCCCCCC(=O)N[C@@H](CCCNC(=N)N)C(=O)NCC(=O)N[C@@H](CO)C(=O)N[C@@H](CCCNC(=N)N)C(=O)N[C@@H](CO)C(=O)NCC(=O)N[C@@H](CCC(N)=O)C(=O)N[C@@H](CO)C(=O)N[C@@H](CO)C(=O)N[C@@H](CCCNC(=N)N)C(=O)NCC(=O)N[C@@H](CCC(=O)O)C(=O)N[C@@H](CCCNC(=N)N)C(=O)N[C@@H](CCCNC(=N)N)C(=O)O [Pal-HR 1-11 2H2R-14] (HELM PEPTIDE1{[CCCCCCCCCCCCCCCC(=O)[*:2]].R.G.S.R.S.G.Q.S.S.R.G.E.R.R}$$$$V2.0) |  | > 32 µg/mL | ≥8 |  |  | MIC, S. aureus ATCC 43300 ([1]; Mueller-Hinton medium): ≥8 µg/mL; HC50 (Hemolysis assay; [5]): > 300 µg/mL; MIC, A. baumannii ATCC 19606 (A. baumannii ATCC 19606; Mueller-Hinton medium): ≥4 µg/mL; MIC, E. coli ATCC 25922 (E. coli ATCC 25922): ≥8 µg/mL
CCCCCCCCCCCCCCCC(=O)N[C@@H](CCCNC(=N)N)C(=O)NCC(=O)N[C@@H](CO)C(=O)N[C@@H](CCCNC(=N)N)C(=O)N[C@@H](CO)C(=O)NCC(=O)N[C@@H](CCC(N)=O)C(=O)N[C@@H](CO)C(=O)N[C@@H](CO)C(=O)N[C@@H](CCCNC(=N)N)C(=O)NCC(=O)N[C@@H](CCC(=O)O)C(=O)N[C@@H](CCCNC(=N)N)C(=O)N[C@@H](CCCNC(=N)N)C(=O)NCC(=O)N[C@@H](CO)C(=O)N[C@@H](CO)C(=O)N[C@@H](CO)C(=O)NCC(=O)N[C@@H](CO)C(=O)N[C@@H](CO)C(=O)N[C@@H](CO)C(=O)N[C@@H](CCCNC(=N)N)C(=O)O [Pal-HR 1-11 3H3R] (HELM PEPTIDE1{[CCCCCCCCCCCCCCCC(=O)[*:2]].R.G.S.R.S.G.Q.S.S.R.G.E.R.R.G.S.S.S.G.S.S.S.R}$$$$V2.0) |  | > 32 µg/mL | ≥32 |  |  | MIC, S. aureus ATCC 43300 ([1]; Mueller-Hinton medium): >32 µg/mL; HC50 (Hemolysis assay; [5]): > 300 µg/mL; MIC, A. baumannii ATCC 19606 (A. baumannii ATCC 19606; Mueller-Hinton medium): ≥8 µg/mL; MIC, E. coli ATCC 25922 (E. coli ATCC 25922): ≥32 µg/mL; MIC, C. albicans ATCC 90028 (C. albicans ATCC 928): ≥32 µg/mL
CCCCCCCCCCCCCCCC(=O)NCC(=O)N[C@@H](CCCNC(=N)N)C(=O)N[C@@H](CCCNC(=N)N)C(=O)NCC(=O)N[C@@H](CO)C(=O)NCC(=O)N[C@@H](CC(C)C)C(=O)NCC(=O)N[C@@H](CCCNC(=N)N)C(=O)N[C@@H](CO)C(=O)N[C@@H](CO)C(=O)N[C@@H](CO)C(=O)N[C@@H](CCCNC(=N)N)C(=O)O [Pal-HR 1-18 3H3R-GR13] (HELM PEPTIDE1{[CCCCCCCCCCCCCCCC(=O)[*:2]].G.R.R.G.S.G.L.G.R.S.S.S.R}$$$$V2.0) | ≥16 | > 32 µg/mL | ≥16 | > 300 | low hemolytic activity | MIC, A. baumannii ATCC 19606 (A. baumannii ATCC 19606; ATCC 19606, 2 h): ≥16 µg/mL
CCCCCCCCCCCCCCCC(=O)NCC(=O)N[C@@H](CCCNC(=N)N)C(=O)N[C@@H](Cc1c[nH]cn1)C(=O)NCC(=O)N[C@@H](CO)C(=O)NCC(=O)N[C@@H](CC(C)C)C(=O)NCC(=O)N[C@@H](Cc1c[nH]cn1)C(=O)N[C@@H](CO)C(=O)N[C@@H](CO)C(=O)N[C@@H](CO)C(=O)N[C@@H](Cc1c[nH]cn1)C(=O)NCC(=O)N[C@@H](CCC(N)=O)C(=O)N[C@@H](Cc1c[nH]cn1)C(=O)NCC(=O)N[C@@H](CO)C(=O)NCC(=O)N[C@@H](CO)C(=O)NCC(=O)N[C@@H](CCCNC(=N)N)C(=O)O [Pal-HR 1-18] (HELM PEPTIDE1{[CCCCCCCCCCCCCCCC(=O)[*:2]].G.R.H.G.S.G.L.G.H.S.S.S.H.G.Q.H.G.S.G.S.G.R}$$$$V2.0) |  | > 32 µg/mL and > 13.7 µM |  | > 300 | low hemolytic activity | HC50 at 1 h (Hemolysis assay; human, washed erythrocytes from EDTA-blood, pH 7.4): > 130 µM; MIC, A. baumannii ATCC 19606 (A. baumannii ATCC 19606; ATCC 19606, 2 h): ≥32 µg/mL
CCCCCCCCCCCCCCCC(=O)NCC(=O)N[C@@H](CCCCN)C(=O)N[C@@H](CCCCN)C(=O)NCC(=O)NCC(=O)N[C@@H](CCCCN)C(=O)NCC(=O)NCC(=O)N[C@@H](CCCCN)C(=O)NCC(=O)N[C@@H](CCCCN)C(=O)NCC(=O)N[C@@H](CCCCN)C(=O)O [Pal-K-GR13] (HELM PEPTIDE1{[CCCCCCCCCCCCCCCC(=O)[*:2]].G.K.K.G.G.K.G.G.K.G.K.G.K}$$$$V2.0) |  | > 32 µg/mL |  | > 300 | low hemolytic activity | 
CCCCCCCCCCCCCCCC(=O)N[C@@H](CO)C(=O)N[C@@H](Cc1c[nH]cn1)C(=O)N[C@@H](Cc1c[nH]cn1)C(=O)N[C@@H](CCCNC(=N)N)C(=O)N[C@@H](Cc1c[nH]cn1)C(=O)N[C@@H](Cc1ccccc1)C(=O)N[C@@H](CCCNC(=N)N)C(=O)N[C@@H](CO)C(=O)N[C@@H](Cc1c[nH]cn1)C(=O)N[C@@H](CCC(N)=O)C(=O)N[C@@H](CS)C(=O)N[C@@H](CCCNC(=N)N)C(=O)N[C@@H](CCCNC(=N)N)C(=O)O [Pal-LCE3C55-67] (HELM PEPTIDE1{[CCCCCCCCCCCCCCCC(=O)[*:2]].S.H.H.R.H.F.R.S.H.Q.C.R.R}$$$$V2.0) | ≥32 | > 32 µg/mL | ≥1 | > 100 |  | MIC, C. albicans ATCC 90028 (C. albicans ATCC 928; ATCC 928): ≥16 µg/mL; MIC (C. albicans ATCC 928): 1 to 32 µg/mL
CCCCCCCCCCCCCCCC(=O)NCC(=O)N[C@@H](CCCN)C(=O)N[C@@H](CCCN)C(=O)NCC(=O)NCC(=O)N[C@@H](CCCN)C(=O)NCC(=O)NCC(=O)N[C@@H](CCCN)C(=O)NCC(=O)N[C@@H](CCCN)C(=O)NCC(=O)N[C@@H](CCCN)C(=O)O [Pal-Orn-GR13, Pal-GOOGGOGGOGOGO] (HELM PEPTIDE1{[CCCCCCCCCCCCCCCC(=O)[*:2]].G.[Orn].[Orn].G.G.[Orn].G.G.[Orn].G.[Orn].G.[Orn]}$$$$V2.0) |  | > 32 µg/mL |  | > 300 | low hemolytic activity | 
Pal-GRRGSGLGRSSSRGGRGSGSGR (Palmitoyl-GRRGSGLGRSSSRGGRGSGSGR) [Pal-HR 1-18 4H-4R] |  |  |  |  |  | MBC90 ([3]; pH 7.3, 0.25% glucose): 75 µg/mL; MBC100 ([3]; pH 7.3, 0.25% glucose): 300 µg/mL; MBC90 ([3]; pH 7.3, 1% TSB): 75 µg/mL; MBC100 ([3]; pH 7.3, 1% TSB): 150 µg/mL
Pal-SHHRPRLFHRRRH (Palmitoyl-SHHRPRLFHRRRH) [Pal-LCE-3B] |  |  |  |  |  | MBC90 ([4]; pH 5.5, 0.25% glucose): 0.15 µg/mL; MBC100 ([4]; pH 5.5, 0.25% glucose): 9.38 µg/mL; MBC90 ([4]; pH 7.3, 0.25% glucose): 2.35 µg/mL; MBC100 ([4]; pH 7.3, 0.25% glucose): 4.7 µg/mL
S-Pal-LCE3C55-75: palmitoylated peptide named among those with low hemolytic activity (SHHRHFRSHQCRRQRSNSCDR; also: S-palmitoylated, Cys not given here; UniProt Q5T5A8 55-75, looked up, fragment) |  |  |  |  | low hemolytic activity | 
